Measurements as given in article PMC6763016 (PLoS ONE, 2019).

Target: T1, 5-HT1A autoreceptor (5-HT1AAR) of Tph2-/- mouse dorsal raphe serotonergic neurons (Mus musculus, UniProt Q64264)
T1 construct: gene Htr1a
T1 sequence (Q64264 1-421): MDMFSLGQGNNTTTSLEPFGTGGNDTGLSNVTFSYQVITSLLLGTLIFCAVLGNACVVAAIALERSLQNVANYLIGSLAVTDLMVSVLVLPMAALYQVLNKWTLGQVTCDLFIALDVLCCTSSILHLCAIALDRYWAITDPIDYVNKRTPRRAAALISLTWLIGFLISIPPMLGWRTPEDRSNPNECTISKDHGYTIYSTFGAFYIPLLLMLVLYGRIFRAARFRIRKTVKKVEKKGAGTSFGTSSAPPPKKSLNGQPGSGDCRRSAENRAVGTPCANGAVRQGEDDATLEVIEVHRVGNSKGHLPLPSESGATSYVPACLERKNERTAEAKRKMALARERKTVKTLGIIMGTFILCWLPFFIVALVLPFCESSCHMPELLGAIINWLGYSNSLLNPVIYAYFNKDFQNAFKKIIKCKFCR
Conditions: agonist; 10 μM phenylephrine and synaptic blockers present; 34-36 °C; four of nine neurons (those silenced by 1 μM)

- % decrease of firing at 1 μM: 96.1 ± 7.3%
Structure (SMILES): O=c1n(CCCN2CCN(c3cccc(Cl)c3)CC2)nc2ccccn12 [Trazodone]
